According to paper PMC6350249 (The Journal of organic chemistry, 2016):

How the values were obtained:
[1] = target: T1, CH1 domain of p300 and the C-TAD domain of HIF-1α (Homo sapiens, UniProt Q09472); experiment: HIF-1α/p300 assay, dose–response version of the screening assay; format: binding; details: for inhibition of the protein–protein interaction: at 500 μM (high test concentration)
[2] = tested on: chloroquine-sensitive (D6) strain of Plasmodium falciparum; experiment: Antimalarial inhibitory activity, chloroquine-sensitive; format: cell-based; details: P. falciparum D6 strain
[3] = tested on: chloroquine-resistant (W2) strain of Plasmodium falciparum; experiment: Antimalarial inhibitory activity, chloroquine-resistant; format: cell-based; details: P. falciparum W2 strain
[4] = target: T1, CH1 domain of p300 and the C-TAD domain of HIF-1α; details: earlier report; cited from earlier work

T1 sequence (Q09472 331-417 limits assumed): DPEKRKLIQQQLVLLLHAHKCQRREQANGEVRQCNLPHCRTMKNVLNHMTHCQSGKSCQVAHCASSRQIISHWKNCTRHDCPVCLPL

Row | Compound | inhibition of the protein–protein interaction [1] | antimalarial effect (in words) [2] | antimalarial effect (in words) [3] | IC50 ([1]; HIF-1α/p300 assay) [nM] | inhibition of the protein–protein interaction between p300 and HIF-1α (in words) [4] | IC50 [2] [nM] | IC50 [3] [nM]
1 | (+)-(R)-eudistidine C [1a] | 27% | significant antimalarial effects | significant antimalarial effects | – | – | – | –
2 | COc1ccc(C2(c3[nH]c(N)nc3-c3ccc(O)cc3)N=C3N=CC=C4c5ccccc5N=C2N43)cc1 (stereo not drawn) [compound 1, eudistidine C] | approximately 48% | – | – | – | – | – | –
3 | (−)-(S)-eudistidine C [1b] | – | significant antimalarial effects | significant antimalarial effects | 276000 | – | – | –
4 | COc1ccc(C2(O)N=C3N=CC=C4c5ccccc5N=C2N43)cc1 (stereo not drawn) [compound 2, eudistidine A] | – | significant antimalarial effects | significant antimalarial effects | – | inhibited | 1400 | 1100
